For five compounds, Activity and inhibition results are on record in ChEMBL document CHEMBL1140899, “Computational studies of epidermal growth factor receptor: docking reliability, three-dimensional quantitative structure-activity relationship analysis, and virtual screening studies” (J Med Chem, 2009).

The structures appear in SMILES notation. Active and inactive are the calls of the source. No cut-off for these calls is given here.

The target of test [1] is T1, Epidermal growth factor receptor (Homo sapiens, UniProt P00533). Kind of test: Inhibition of human recombinant EGFR up to 100 uM.
T1 sequence (P00533 whole entry): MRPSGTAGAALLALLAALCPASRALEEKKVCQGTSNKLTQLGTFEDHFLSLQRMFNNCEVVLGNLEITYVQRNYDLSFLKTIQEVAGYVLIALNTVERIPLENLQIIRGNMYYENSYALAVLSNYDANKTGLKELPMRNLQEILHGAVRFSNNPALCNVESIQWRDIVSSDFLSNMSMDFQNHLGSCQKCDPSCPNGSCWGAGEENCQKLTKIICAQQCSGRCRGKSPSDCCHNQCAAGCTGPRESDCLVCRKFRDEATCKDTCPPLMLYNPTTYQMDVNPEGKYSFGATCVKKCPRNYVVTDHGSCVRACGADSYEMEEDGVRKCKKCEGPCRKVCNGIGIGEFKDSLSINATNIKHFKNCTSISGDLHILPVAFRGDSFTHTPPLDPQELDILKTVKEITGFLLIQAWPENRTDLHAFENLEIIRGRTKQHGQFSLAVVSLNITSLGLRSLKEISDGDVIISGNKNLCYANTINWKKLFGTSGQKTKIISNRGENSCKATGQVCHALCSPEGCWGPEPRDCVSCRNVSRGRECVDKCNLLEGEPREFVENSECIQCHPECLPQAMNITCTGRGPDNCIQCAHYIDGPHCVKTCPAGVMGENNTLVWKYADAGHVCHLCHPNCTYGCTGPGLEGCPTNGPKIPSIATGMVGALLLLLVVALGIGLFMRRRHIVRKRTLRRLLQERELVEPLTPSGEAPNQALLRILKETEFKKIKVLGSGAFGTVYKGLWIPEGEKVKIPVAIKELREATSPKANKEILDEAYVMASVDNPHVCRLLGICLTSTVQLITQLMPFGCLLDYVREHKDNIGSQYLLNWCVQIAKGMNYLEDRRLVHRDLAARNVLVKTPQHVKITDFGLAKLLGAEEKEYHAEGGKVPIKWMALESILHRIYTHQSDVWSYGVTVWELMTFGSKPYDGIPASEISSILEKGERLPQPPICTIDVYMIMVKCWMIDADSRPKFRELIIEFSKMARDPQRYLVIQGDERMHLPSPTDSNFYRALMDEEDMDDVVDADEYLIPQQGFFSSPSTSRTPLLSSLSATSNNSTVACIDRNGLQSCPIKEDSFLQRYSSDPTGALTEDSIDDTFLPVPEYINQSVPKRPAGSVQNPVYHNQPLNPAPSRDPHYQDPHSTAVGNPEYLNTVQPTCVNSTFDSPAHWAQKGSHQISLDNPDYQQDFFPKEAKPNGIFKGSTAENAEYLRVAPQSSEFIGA
Test [2] addresses T1, Epidermal growth factor receptor. Kind of test: Inhibition of human recombinant EGFR at 100 uM.

The inhibition is the change of the read-out against control, counted positive when it falls.

Take `FC(F)(F)Oc1ccc(Nc2ccnc3cc(Cl)ccc23)cc1`: the outcome in test [1] was inactive.

For `Nc1ccc(Nc2ccc([N+](=O)[O-])c3ncnc(O)c23)cc1`, the inhibition in test [2] is 0%.

`COc1ccc([N+](=O)[O-])c2ncnc(O)c12`: in test [2], the inhibition came to 0%.

On to `Cc1cccc(Nc2ccc([N+](=O)[O-])c3ncnc(O)c23)c1`, for which the inhibition in test [2] turned out to be 0%.

Regarding `O=[N+]([O-])c1ccc(N2CCCC2)c2c(O)ncnc12`, the inhibition in test [2] was 0%.
